Results: the NIST ThermoML archive (doi:10.1016/j.jct.2006.09.015)

Key:
[1] = relative permittivity at various frequencies (dimensionless); xn = mol fraction of the nth substance listed; settings: 101.3 kPa, Liquid, Frequency=3 MHz, Bridge type OH-301 made in Radelcis, Hungary
[2] = relative permittivity at various frequencies (dimensionless); settings: 101.3 kPa, Liquid, Frequency=3 MHz, Bridge type OH-301 made in Radelcis, Hungary

OCCOCCO [diethylene glycol] + COCCO
relative permittivity, [1]
Settings | 293.15 K | 298.15 K | 303.15 K
x2 = 0 | 31.81 | 30.95 | 30.03
x2 = 0.0414 | 31.69 | 30.71 | 29.85
x2 = 0.0999 | 31.49 | 30.39 | 29.49
x2 = 0.2077 | 31.23 | 29.85 | 29.01
x2 = 0.3001 | 31.03 | 29.41 | 28.45
x2 = 0.4094 | 30.32 | 28.67 | 27.49
x2 = 0.4998 | 29.56 | 27.81 | 26.61
x2 = 0.5994 | 28.32 | 26.68 | 25.36
x2 = 0.6996 | 26.65 | 24.99 | 23.55
x2 = 0.7996 | 24.25 | 22.78 | 21.64
x2 = 0.9018 | 21.43 | 20.27 | 19.39
x2 = 0.9463 | 19.98 | 18.88 | 18.25

OCCOCCOCCO [triethylene glycol]
[2]
Settings | relative permittivity
293.15 K | 23.69
298.15 K | 23.07
303.15 K | 22.43

COCCO [2-methoxyethan-1-ol] + OCCOCCOCCO
[1], x1 = 1
Settings | relative permittivity
293.15 K | 17.38
298.15 K | 16.95
303.15 K | 16.56

COCCO [2-methoxyethan-1-ol]
[2]
Settings | relative permittivity
293.15 K | 17.38
298.15 K | 16.95
303.15 K | 16.56

COCCO [2-methoxyethan-1-ol] + OCCOCCOCCOCCO
[1], x1 = 1
Settings | relative permittivity
293.15 K | 17.38
298.15 K | 16.95
303.15 K | 16.56

OCCOCCOCCO [triethylene glycol] + COCCO
relative permittivity, [1]
Settings | 293.15 K | 298.15 K | 303.15 K
x2 = 0 | 23.69 | 23.07 | 22.43
x2 = 0.05 | 23.69 | 23.05 | 22.42
x2 = 0.1 | 23.7 | 23.03 | 22.41
x2 = 0.2003 | 23.72 | 23.06 | 22.48
x2 = 0.2999 | 23.76 | 23.07 | 22.48
x2 = 0.4009 | 23.79 | 23.06 | 22.44
x2 = 0.5 | 23.82 | 22.95 | 22.35
x2 = 0.5999 | 23.77 | 22.76 | 21.91
x2 = 0.7 | 23.62 | 22.3 | 21.39
x2 = 0.8 | 22.92 | 21.54 | 20.43
x2 = 0.9 | 21.26 | 19.93 | 19.1
x2 = 0.9499 | 19.75 | 18.81 | 18.14

COCCO [2-methoxyethan-1-ol] + OCCOCCO
[1], x1 = 1
Settings | relative permittivity
293.15 K | 17.38
298.15 K | 16.95
303.15 K | 16.56

OCCOCCO [diethylene glycol]
[2]
Settings | relative permittivity
293.15 K | 31.81
298.15 K | 30.95
303.15 K | 30.03
